# According to patent US9963445B2, “Chemical compounds” (SYNGENTA PARTICIPATIONS AG, priority 2013, dated 2018):
# System: Abutilon theophrasti
# Assay: Pre-emergence herbicidal activity, glasshouse pot test
# Assay type: in vivo
# Conditions: pre-emergence spray, rate 1000 g/ha, evaluated after 13 days, scale 0-5
# How it was run: (§1)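 Glasshouse conditions were 24/16 °C day/night with 14 h light and 65% humidity throughout. Soil was sprayed before emergence, one day after sowing, using an acetone/water (50:50) formulation with 0.5% Tween 20; injury was scored 0–5 after 13 days.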
row,SMILES,"ABUTH damage score, application pre-emergence"
1,CC1=C(Cl)C(=O)N(c2cc(C(F)(F)F)c(Cl)cn2)C1O (stereo not drawn) [AF58],2
2,COc1ccc(-c2ccc(N3C(=O)C(Cl)=C(C)C3O)nc2)cc1 (stereo not drawn) [AF59],2
3,CC1=C(Cl)C(=O)N(c2ccc(C#N)cn2)C1O (stereo not drawn) [AF60],0
4,CC1=C(Cl)C(=O)N(c2ncc(F)cc2F)C1O (stereo not drawn) [AF62],2
5,CC1=C(Cl)C(=O)N(c2ncc(C(F)(F)F)cc2F)C1O (stereo not drawn) [AF63],0
6,CC1=C(Cl)C(=O)N(c2cc(OC(F)(F)F)ccn2)C1O (stereo not drawn) [AF74],2
7,CCCC1=C(Cl)C(=O)N(c2cc(C(F)(F)F)ccn2)C1O (stereo not drawn) [AF81],4
8,CC(C)(C)C1=C(Cl)C(=O)N(c2cc(C(F)(F)F)ccn2)C1O (stereo not drawn) [AF82],0

# System: Alopecurus myosuroides
# Assay: as above
# Assay type: in vivo
# Conditions: pre-emergence spray, rate 1000 g/ha, evaluated after 13 days, scale 0-5
# How it was run: as §1
row,SMILES,"ALOMY damage score, application pre-emergence"
1,CC1=C(Cl)C(=O)N(c2cc(C(F)(F)F)c(Cl)cn2)C1O (stereo not drawn) [AF58],3
2,COc1ccc(-c2ccc(N3C(=O)C(Cl)=C(C)C3O)nc2)cc1 (stereo not drawn) [AF59],0
3,CC1=C(Cl)C(=O)N(c2ccc(C#N)cn2)C1O (stereo not drawn) [AF60],0
4,CC1=C(Cl)C(=O)N(c2ncc(F)cc2F)C1O (stereo not drawn) [AF62],0
5,CC1=C(Cl)C(=O)N(c2ncc(C(F)(F)F)cc2F)C1O (stereo not drawn) [AF63],0
6,CC1=C(Cl)C(=O)N(c2cc(OC(F)(F)F)ccn2)C1O (stereo not drawn) [AF74],3
7,CCCC1=C(Cl)C(=O)N(c2cc(C(F)(F)F)ccn2)C1O (stereo not drawn) [AF81],3
8,CC(C)(C)C1=C(Cl)C(=O)N(c2cc(C(F)(F)F)ccn2)C1O (stereo not drawn) [AF82],0

# System: Amaranthus retroflexus
# Assay: as above
# Assay type: in vivo
# Conditions: pre-emergence spray, rate 1000 g/ha, evaluated after 13 days, scale 0-5
# How it was run: as §1
row,SMILES,"AMARE damage score, application pre-emergence"
1,CC1=C(Cl)C(=O)N(c2cc(C(F)(F)F)c(Cl)cn2)C1O (stereo not drawn) [AF58],5
2,COc1ccc(-c2ccc(N3C(=O)C(Cl)=C(C)C3O)nc2)cc1 (stereo not drawn) [AF59],3
3,CC1=C(Cl)C(=O)N(c2ccc(C#N)cn2)C1O (stereo not drawn) [AF60],0
4,CC1=C(Cl)C(=O)N(c2ncc(F)cc2F)C1O (stereo not drawn) [AF62],2
5,CC1=C(Cl)C(=O)N(c2ncc(C(F)(F)F)cc2F)C1O (stereo not drawn) [AF63],0
6,CC1=C(Cl)C(=O)N(c2cc(OC(F)(F)F)ccn2)C1O (stereo not drawn) [AF74],5
7,CCCC1=C(Cl)C(=O)N(c2cc(C(F)(F)F)ccn2)C1O (stereo not drawn) [AF81],5
8,CC(C)(C)C1=C(Cl)C(=O)N(c2cc(C(F)(F)F)ccn2)C1O (stereo not drawn) [AF82],0

# System: Echinochloa crus-galli
# Assay: as above
# Assay type: in vivo
# Conditions: pre-emergence spray, rate 1000 g/ha, evaluated after 13 days, scale 0-5
# How it was run: as §1
row,SMILES,"ECHCG damage score, application pre-emergence"
1,CC1=C(Cl)C(=O)N(c2cc(C(F)(F)F)c(Cl)cn2)C1O (stereo not drawn) [AF58],4
2,COc1ccc(-c2ccc(N3C(=O)C(Cl)=C(C)C3O)nc2)cc1 (stereo not drawn) [AF59],1
3,CC1=C(Cl)C(=O)N(c2ccc(C#N)cn2)C1O (stereo not drawn) [AF60],0
4,CC1=C(Cl)C(=O)N(c2ncc(F)cc2F)C1O (stereo not drawn) [AF62],0
5,CC1=C(Cl)C(=O)N(c2ncc(C(F)(F)F)cc2F)C1O (stereo not drawn) [AF63],0
6,CC1=C(Cl)C(=O)N(c2cc(OC(F)(F)F)ccn2)C1O (stereo not drawn) [AF74],4
7,CCCC1=C(Cl)C(=O)N(c2cc(C(F)(F)F)ccn2)C1O (stereo not drawn) [AF81],5
8,CC(C)(C)C1=C(Cl)C(=O)N(c2cc(C(F)(F)F)ccn2)C1O (stereo not drawn) [AF82],0

# System: Setaria faberi
# Assay: as above
# Assay type: in vivo
# Conditions: pre-emergence spray, rate 1000 g/ha, evaluated after 13 days, scale 0-5
# How it was run: as §1
row,SMILES,"SETFA damage score, application pre-emergence"
1,CC1=C(Cl)C(=O)N(c2cc(C(F)(F)F)c(Cl)cn2)C1O (stereo not drawn) [AF58],3
2,COc1ccc(-c2ccc(N3C(=O)C(Cl)=C(C)C3O)nc2)cc1 (stereo not drawn) [AF59],0
3,CC1=C(Cl)C(=O)N(c2ccc(C#N)cn2)C1O (stereo not drawn) [AF60],0
4,CC1=C(Cl)C(=O)N(c2ncc(F)cc2F)C1O (stereo not drawn) [AF62],0
5,CC1=C(Cl)C(=O)N(c2ncc(C(F)(F)F)cc2F)C1O (stereo not drawn) [AF63],0
6,CC1=C(Cl)C(=O)N(c2cc(OC(F)(F)F)ccn2)C1O (stereo not drawn) [AF74],4
7,CCCC1=C(Cl)C(=O)N(c2cc(C(F)(F)F)ccn2)C1O (stereo not drawn) [AF81],2
8,CC(C)(C)C1=C(Cl)C(=O)N(c2cc(C(F)(F)F)ccn2)C1O (stereo not drawn) [AF82],0

# System: zea mays
# Assay: as above
# Assay type: in vivo
# Conditions: pre-emergence spray, rate 1000 g/ha, evaluated after 13 days, scale 0-5
# How it was run: as §1
row,SMILES,"ZEAMX damage score, application pre-emergence"
1,CC1=C(Cl)C(=O)N(c2cc(C(F)(F)F)c(Cl)cn2)C1O (stereo not drawn) [AF58],0
2,COc1ccc(-c2ccc(N3C(=O)C(Cl)=C(C)C3O)nc2)cc1 (stereo not drawn) [AF59],0
3,CC1=C(Cl)C(=O)N(c2ccc(C#N)cn2)C1O (stereo not drawn) [AF60],0
4,CC1=C(Cl)C(=O)N(c2ncc(F)cc2F)C1O (stereo not drawn) [AF62],0
5,CC1=C(Cl)C(=O)N(c2ncc(C(F)(F)F)cc2F)C1O (stereo not drawn) [AF63],0
6,CC1=C(Cl)C(=O)N(c2cc(OC(F)(F)F)ccn2)C1O (stereo not drawn) [AF74],2
7,CCCC1=C(Cl)C(=O)N(c2cc(C(F)(F)F)ccn2)C1O (stereo not drawn) [AF81],2
8,CC(C)(C)C1=C(Cl)C(=O)N(c2cc(C(F)(F)F)ccn2)C1O (stereo not drawn) [AF82],1

# System: Abutilon theophrasti
# Assay: Post-emergence herbicidal activity, glasshouse pot test
# Assay type: in vivo
# Set-up: key: 0 = no damage to plant, 5 = total damage to plant
# Conditions: Application post-emergence, rate 1000 g/ha, evaluated after 13 days
# How it was run: (§2)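 Pot-grown seedlings, sown in standard soil, were sprayed 8 days after sowing and kept in a controlled glasshouse (24/16 °C, 14 h photoperiod, 65% humidity). Injury was assessed visually 13 days later on a scale where 5 means total damage.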
row,SMILES,ABUTH herbicidal damage score
1,CC1=C(Cl)C(=O)N(c2cc(C(F)(F)F)c(Cl)cn2)C1O (stereo not drawn) [AF58],5
2,COc1ccc(-c2ccc(N3C(=O)C(Cl)=C(C)C3O)nc2)cc1 (stereo not drawn) [AF59],4
3,CC1=C(Cl)C(=O)N(c2ccc(C#N)cn2)C1O (stereo not drawn) [AF60],0
4,CC1=C(Cl)C(=O)N(c2ncc(F)cc2F)C1O (stereo not drawn) [AF62],2
5,CC1=C(Cl)C(=O)N(c2ncc(C(F)(F)F)cc2F)C1O (stereo not drawn) [AF63],1
6,CC1=C(Cl)C(=O)N(c2cc(OC(F)(F)F)ccn2)C1O (stereo not drawn) [AF74],5
7,CCCC1=C(Cl)C(=O)N(c2cc(C(F)(F)F)ccn2)C1O (stereo not drawn) [AF81],5
8,CC(C)(C)C1=C(Cl)C(=O)N(c2cc(C(F)(F)F)ccn2)C1O (stereo not drawn) [AF82],0

# System: Alopecurus myosuroides
# Assay: as above
# Assay type: in vivo
# Set-up: key: 0 = no damage to plant, 5 = total damage to plant
# Conditions: Application post-emergence, rate 1000 g/ha, evaluated after 13 days
# How it was run: as §2
row,SMILES,ALOMY herbicidal damage score
1,CC1=C(Cl)C(=O)N(c2cc(C(F)(F)F)c(Cl)cn2)C1O (stereo not drawn) [AF58],4
2,COc1ccc(-c2ccc(N3C(=O)C(Cl)=C(C)C3O)nc2)cc1 (stereo not drawn) [AF59],1
3,CC1=C(Cl)C(=O)N(c2ccc(C#N)cn2)C1O (stereo not drawn) [AF60],1
4,CC1=C(Cl)C(=O)N(c2ncc(F)cc2F)C1O (stereo not drawn) [AF62],1
5,CC1=C(Cl)C(=O)N(c2ncc(C(F)(F)F)cc2F)C1O (stereo not drawn) [AF63],1
6,CC1=C(Cl)C(=O)N(c2cc(OC(F)(F)F)ccn2)C1O (stereo not drawn) [AF74],4
7,CCCC1=C(Cl)C(=O)N(c2cc(C(F)(F)F)ccn2)C1O (stereo not drawn) [AF81],4
8,CC(C)(C)C1=C(Cl)C(=O)N(c2cc(C(F)(F)F)ccn2)C1O (stereo not drawn) [AF82],0

# System: Amaranthus retroflexus
# Assay: as above
# Assay type: in vivo
# Set-up: key: 0 = no damage to plant, 5 = total damage to plant
# Conditions: Application post-emergence, rate 1000 g/ha, evaluated after 13 days
# How it was run: as §2
row,SMILES,AMARE herbicidal damage score
1,CC1=C(Cl)C(=O)N(c2cc(C(F)(F)F)c(Cl)cn2)C1O (stereo not drawn) [AF58],5
2,COc1ccc(-c2ccc(N3C(=O)C(Cl)=C(C)C3O)nc2)cc1 (stereo not drawn) [AF59],3
3,CC1=C(Cl)C(=O)N(c2ccc(C#N)cn2)C1O (stereo not drawn) [AF60],0
4,CC1=C(Cl)C(=O)N(c2ncc(F)cc2F)C1O (stereo not drawn) [AF62],0
5,CC1=C(Cl)C(=O)N(c2ncc(C(F)(F)F)cc2F)C1O (stereo not drawn) [AF63],0
6,CC1=C(Cl)C(=O)N(c2cc(OC(F)(F)F)ccn2)C1O (stereo not drawn) [AF74],5
7,CCCC1=C(Cl)C(=O)N(c2cc(C(F)(F)F)ccn2)C1O (stereo not drawn) [AF81],5
8,CC(C)(C)C1=C(Cl)C(=O)N(c2cc(C(F)(F)F)ccn2)C1O (stereo not drawn) [AF82],0

# System: Echinochloa crus-galli
# Assay: as above
# Assay type: in vivo
# Set-up: key: 0 = no damage to plant, 5 = total damage to plant
# Conditions: Application post-emergence, rate 1000 g/ha, evaluated after 13 days
# How it was run: as §2
row,SMILES,ECHCG herbicidal damage score
1,CC1=C(Cl)C(=O)N(c2cc(C(F)(F)F)c(Cl)cn2)C1O (stereo not drawn) [AF58],5
2,COc1ccc(-c2ccc(N3C(=O)C(Cl)=C(C)C3O)nc2)cc1 (stereo not drawn) [AF59],1
3,CC1=C(Cl)C(=O)N(c2ccc(C#N)cn2)C1O (stereo not drawn) [AF60],1
4,CC1=C(Cl)C(=O)N(c2ncc(F)cc2F)C1O (stereo not drawn) [AF62],1
5,CC1=C(Cl)C(=O)N(c2ncc(C(F)(F)F)cc2F)C1O (stereo not drawn) [AF63],1
6,CC1=C(Cl)C(=O)N(c2cc(OC(F)(F)F)ccn2)C1O (stereo not drawn) [AF74],5
7,CCCC1=C(Cl)C(=O)N(c2cc(C(F)(F)F)ccn2)C1O (stereo not drawn) [AF81],5
8,CC(C)(C)C1=C(Cl)C(=O)N(c2cc(C(F)(F)F)ccn2)C1O (stereo not drawn) [AF82],3

# System: Setaria faberi
# Assay: as above
# Assay type: in vivo
# Set-up: key: 0 = no damage to plant, 5 = total damage to plant
# Conditions: Application post-emergence, rate 1000 g/ha, evaluated after 13 days
# How it was run: as §2
row,SMILES,SETFA herbicidal damage score
1,CC1=C(Cl)C(=O)N(c2cc(C(F)(F)F)c(Cl)cn2)C1O (stereo not drawn) [AF58],5
2,COc1ccc(-c2ccc(N3C(=O)C(Cl)=C(C)C3O)nc2)cc1 (stereo not drawn) [AF59],2
3,CC1=C(Cl)C(=O)N(c2ccc(C#N)cn2)C1O (stereo not drawn) [AF60],1
4,CC1=C(Cl)C(=O)N(c2ncc(F)cc2F)C1O (stereo not drawn) [AF62],1
5,CC1=C(Cl)C(=O)N(c2ncc(C(F)(F)F)cc2F)C1O (stereo not drawn) [AF63],1
6,CC1=C(Cl)C(=O)N(c2cc(OC(F)(F)F)ccn2)C1O (stereo not drawn) [AF74],5
7,CCCC1=C(Cl)C(=O)N(c2cc(C(F)(F)F)ccn2)C1O (stereo not drawn) [AF81],4
8,CC(C)(C)C1=C(Cl)C(=O)N(c2cc(C(F)(F)F)ccn2)C1O (stereo not drawn) [AF82],0

# System: zea mays
# Assay: as above
# Assay type: in vivo
# Set-up: key: 0 = no damage to plant, 5 = total damage to plant
# Conditions: Application post-emergence, rate 1000 g/ha, evaluated after 13 days
# How it was run: as §2
row,SMILES,ZEAMX herbicidal damage score
1,CC1=C(Cl)C(=O)N(c2cc(C(F)(F)F)c(Cl)cn2)C1O (stereo not drawn) [AF58],3
2,COc1ccc(-c2ccc(N3C(=O)C(Cl)=C(C)C3O)nc2)cc1 (stereo not drawn) [AF59],0
3,CC1=C(Cl)C(=O)N(c2ccc(C#N)cn2)C1O (stereo not drawn) [AF60],0
4,CC1=C(Cl)C(=O)N(c2ncc(F)cc2F)C1O (stereo not drawn) [AF62],0
5,CC1=C(Cl)C(=O)N(c2ncc(C(F)(F)F)cc2F)C1O (stereo not drawn) [AF63],0
6,CC1=C(Cl)C(=O)N(c2cc(OC(F)(F)F)ccn2)C1O (stereo not drawn) [AF74],2
7,CCCC1=C(Cl)C(=O)N(c2cc(C(F)(F)F)ccn2)C1O (stereo not drawn) [AF81],2
8,CC(C)(C)C1=C(Cl)C(=O)N(c2cc(C(F)(F)F)ccn2)C1O (stereo not drawn) [AF82],2
